Data: the supplement of paper PMC13380429

How the values were obtained:
[1] = test system: A549-ACE2 infected with SARS-CoV-2; experiment: cell count relative to DMSO; higher = less toxic; conditions: 24 h
Caco-2 [2] = experiment: cell viability relative to DMSO; higher = less toxic; conditions: 72 h
HepG2 [3] = experiment: as above; conditions: 72 h
U2OS [4] = experiment: as above; conditions: 72 h
Vero E6 [5] = experiment: as above; conditions: 72 h
[6] = test system: A549-ACE2 infected with SARS-CoV-2; experiment: SARS-CoV-2 infection rate relative to DMSO; higher = more infection; conditions: 24 h
A549-ACE2 [7] = experiment: drug-induced phospholipidosis relative to tamoxifen; higher = more phospholipidosis
[8] = test system: A549-ACE2 infected with SARS-CoV-2; experiment: morphology score (similarity to uninfected cells); higher = more like uninfected cells; conditions: 24 h
Caco-2 [9] = experiment: relative viability EC50 (midpoint between 100% and the lowest measured viability); higher = less toxic; conditions: 72 h
HepG2 [10] = experiment: as above; conditions: 72 h
U2OS [11] = experiment: as above; conditions: 72 h
Vero E6 [12] = experiment: as above; conditions: 72 h
Caco-2 [13] = experiment: drug sensitivity score (DSS) for viability; higher = more toxic; extreme values may be limits of the assay; conditions: 72 h
HepG2 [14] = experiment: as above; conditions: 72 h
U2OS [15] = experiment: as above; conditions: 72 h
Vero E6 [16] = experiment: as above; conditions: 72 h
Calu-3 [17] = experiment: cell viability relative to DMSO; higher = less toxic; conditions: 72 h
A549-ACE2 [18] = experiment: phospholipidosis EC50; higher = less potent phospholipidosis inducer; conditions: 24 h
Calu-3 [19] = experiment: relative viability EC50 (midpoint between 100% and the lowest measured viability); higher = less toxic; conditions: 72 h
Calu-3 [20] = experiment: drug sensitivity score (DSS) for viability; higher = more toxic; extreme values may be limits of the assay; conditions: 72 h

N=C(N)c1cc2ccc(OC(=O)c3cccs3)cc2s1 [BCX-1470]
Conditions | SARS-CoV-2 infection rate, [6] [%] | cell count, [1] [%] | cell viability, Caco-2 [2] [%] | cell viability, HepG2 [3] [%] | cell viability, U2OS [4] [%] | cell viability, Vero E6 [5] [%] | morphology score, [8]
1 nM | – | – | 97.9 | 112 | 100 | 97 | –
10 nM | – | – | 96.1 | 100 | 100 | 95.2 | –
100 nM | – | – | 95.5 | 104 | 98.4 | 92.8 | –
0.3 µM | 97 | 102 | – | – | – | – | 0.05
1000 nM | – | – | 96.5 | 102 | 95.9 | 98.2 | –
3 µM | 99 | 99 | – | – | – | – | -0.11
10 µM | 54 | 95 | – | – | – | – | 0.59
10000 nM | – | – | 107 | 13.1 | 101 | 96.2 | –
30 µM | 22 | 52 | – | – | – | – | 0.39

drug-induced phospholipidosis [%], A549-ACE2 [7]
Conditions | 0.3 µM | 0.833333 µM | 3.33333 µM | 6.66667 µM | 10 µM
24 h | 1.95 | 3.92 | 0.54 | 7.05 | 10.8
48 h | 1.86 | -0.27 | -2.94 | 10.7 | 17.1
72 h | 0.245 | -2.66 | -0.938 | 1.04 | 8.25

Conditions | drug sensitivity score | relative viability EC50 [µM]
Caco-2 [9] | – | > 10
Caco-2 [13] | 0 | –
HepG2 [10] | – | 3.32
HepG2 [14] | 4.6 | –
U2OS [11] | – | > 10
U2OS [15] | 0 | –
Vero E6 [12] | – | > 10
Vero E6 [16] | 0 | –

CC(C)c1cnn2c(NCc3ccccc3)cc(NCCCCCCN)nc12 [BS-181]
Conditions | SARS-CoV-2 infection rate, [6] [%] | cell count, [1] [%] | cell viability, Caco-2 [2] [%] | cell viability, Calu-3 [17] [%] | cell viability, HepG2 [3] [%] | cell viability, U2OS [4] [%] | cell viability, Vero E6 [5] [%] | morphology score, [8]
1 nM | – | – | 101 | 100 | 97 | 102 | 98.5 | –
10 nM | – | – | 84 | 106 | 92 | 94.8 | 97.6 | –
100 nM | – | – | 122 | 99.9 | 98.1 | 101 | 99 | –
0.3 µM | 99 | 102 | – | – | – | – | – | 0.12
1000 nM | – | – | 90.2 | 115 | 90.3 | 96.1 | 94.6 | –
3 µM | 37 | 115 | – | – | – | – | – | 0.87
10 µM | 9 | 101 | – | – | – | – | – | 0.93
10000 nM | – | – | 79 | 87.3 | 80 | 91 | 86.1 | –
30 µM | 25 | 47 | – | – | – | – | – | 0.26

Conditions | drug sensitivity score | phospholipidosis EC50 [µM] | relative viability EC50 [µM]
A549-ACE2 [18] | – | 15 | –
Caco-2 [9] | – | – | > 10
Caco-2 [13] | 1.7 | – | –
Calu-3 [19] | – | – | > 10
Calu-3 [20] | 0 | – | –
HepG2 [10] | – | – | > 10
HepG2 [14] | 0.9 | – | –
U2OS [11] | – | – | > 10
U2OS [15] | 0 | – | –
Vero E6 [12] | – | – | > 10
Vero E6 [16] | 0.4 | – | –

drug-induced phospholipidosis [%], A549-ACE2 [7]
Conditions | 0.3 µM | 0.833333 µM | 3.33333 µM | 6.66667 µM | 10 µM | 30 µM
24 h | 0.84 | 1.04 | 6.25 | 11.9 | 29.1 | 83.9
48 h | 1.54 | 0.53 | 4.06 | 7 | 14.2 | 37.6
72 h | 2.87 | 1.74 | 3.1 | 5.35 | 9.65 | 19.3
